Data published in patent US12209087B2, “AKT1 modulators” (Alterome Therapeutics, Inc., priority 2022, dated 2025).

Target: T1, full length AKT E17K (Homo sapiens, UniProt P31749, E17K)
T1 construct: host or cells: HEK-293 (ATCC CRL-1573)
Test: NanoBRET Target Engagement (TE) Assay
Format: cell-based
Conditions: competitive displacement of tracer in cells, read-out: AKT1 E17K IC50
In short: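 Compound and tracer incubated 2 h before luminescence at donor 450 nm and acceptor 600 nm, with extracellular signal inhibited. EC50 by sigmoidal variable-slope regression.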

T1 sequence (P31749 whole entry E17K): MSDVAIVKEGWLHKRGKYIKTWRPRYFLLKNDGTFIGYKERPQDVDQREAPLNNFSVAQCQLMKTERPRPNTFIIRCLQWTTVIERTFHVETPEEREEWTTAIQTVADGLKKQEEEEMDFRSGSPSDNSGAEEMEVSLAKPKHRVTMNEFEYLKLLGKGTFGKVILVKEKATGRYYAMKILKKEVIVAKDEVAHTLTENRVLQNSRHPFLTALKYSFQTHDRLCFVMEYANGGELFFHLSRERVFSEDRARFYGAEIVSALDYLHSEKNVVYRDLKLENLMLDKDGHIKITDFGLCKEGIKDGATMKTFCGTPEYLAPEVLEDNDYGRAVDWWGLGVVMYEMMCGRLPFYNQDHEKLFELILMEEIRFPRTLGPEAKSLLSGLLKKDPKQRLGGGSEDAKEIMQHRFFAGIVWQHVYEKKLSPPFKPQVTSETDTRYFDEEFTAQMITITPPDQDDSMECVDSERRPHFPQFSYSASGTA

| Structure (SMILES) | IC50 |
| --- | --- |
| Cc1cc(F)ccc1-c1ccc2nc(-c3cccnc3N)n(-c3ccc(CN4CCC(Nc5ccnc(C#N)n5)CC4)cc3)c2n1 [Example 523, 4-((1-(4-(2-(2-Aminopyridin-3-yl)-5-(4-fluoro-2-methylphenyl)-3H-imidazo[4,5-b]pyridin-3-yl)benzyl)piperidin-4-yl)amino)pyrimidine-2-carbonitrile] | 15 to 60 nM |
| N#Cc1nccc(NC2CCN(Cc3ccc(-n4c(-c5cccnc5N)nc5ccc(-c6ccc(F)cc6C(N)=O)nc54)cc3)CC2)n1 [Example 524, 2-(2-(2-aminopyridin-3-yl)-3-(4-((4-((2-cyanopyrimidin-4-yl)amino)piperidin-1-yl)methyl)phenyl)-3H-imidazo[4,5-b]pyridin-5-yl)-5-fluorobenzamide] | 600 to 10000 nM |
| N#Cc1nccc(NC2CCN(Cc3ccc(-n4c(-c5cccnc5N)nc5ccc(-c6ccc(F)cc6C#N)nc54)cc3)CC2)n1 [Example 525, 4-((1-(4-(2-(2-Aminopyridin-3-yl)-5-(2-cyano-4-fluorophenyl)-3H-imidazo[4,5-b]pyridin-3-yl)benzyl)piperidin-4-yl)amino)pyrimidine-2-carbonitrile] | 15 to 60 nM |
| N#Cc1nccc(NC2CCN(Cc3ccc(-n4c(-c5cccnc5N)nc5ccc(-c6ccc(F)cc6C(F)(F)F)nc54)cc3)CC2)n1 [Example 526, 4-((1-(4-(2-(2-Aminopyridin-3-yl)-5-(4-fluoro-2-(trifluoromethyl)phenyl)-3H-imidazo[4,5-b]pyridin-3-yl)benzyl)piperidin-4-yl)amino)pyrimidine-2-carbonitrile] | 600 to 10000 nM |
| Cc1ccccc1-c1ccc2nc(-c3cccnc3N)n(-c3ccc(CN4CCC(Nc5ccnc(C#N)n5)CC4)cc3)c2n1 [Example 527, 4-((1-(4-(2-(2-Aminopyridin-3-yl)-5-(o-tolyl)-3H-imidazo[4,5-b]pyridin-3-yl)benzyl)piperidin-4-yl)amino)pyrimidine-2-carbonitrile] | < 15 nM |
| Cc1cccc(-c2ccc3nc(-c4cccnc4N)n(-c4ccc(CN5CCC(Nc6ccnc(C#N)n6)CC5)cc4)c3n2)c1 [Example 528, 4-((1-(4-(2-(2-Aminopyridin-3-yl)-5-(m-tolyl)-3H-imidazo[4,5-b]pyridin-3-yl)benzyl)piperidin-4-yl)amino)pyrimidine-2-carbonitrile] | < 15 nM |
| Cc1ccc(-c2ccc3nc(-c4cccnc4N)n(-c4ccc(CN5CCC(Nc6ccnc(C#N)n6)CC5)cc4)c3n2)cc1 [Example 529, 4-((1-(4-(2-(2-Aminopyridin-3-yl)-5-(p-tolyl)-3H-imidazo[4,5-b]pyridin-3-yl)benzyl)piperidin-4-yl)amino)pyrimidine-2-carbonitrile] | < 15 nM |
| N#Cc1nccc(NC2CCN(Cc3ccc(-n4c(-c5cccnc5N)nc5ccc(-c6cccc(C(F)(F)F)c6)nc54)cc3)CC2)n1 [Example 530, 4-((1-(4-(2-(2-Aminopyridin-3-yl)-5-(3-(trifluoromethyl)phenyl)-3H-imidazo[4,5-b]pyridin-3-yl)benzyl)piperidin-4-yl)amino)pyrimidine-2-carbonitrile] | 15 to 60 nM |
| CC(C)OC(=O)c1ccc2nc(-c3cccnc3N)n(-c3ccc(CN4CCC(Nc5ccnc(C#N)n5)CC4)cc3)c2n1 [Example 531, Isopropyl 2-(2-aminopyridin-3-yl)-3-(4-((4-((2-cyanopyrimidin-4-yl)amino)piperidin-1-yl)methyl)phenyl)-3H-imidazo[4,5-b]pyridine-5-carboxylate] | < 15 nM |
| N#Cc1nccc(NC2CCN(Cc3ccc(-n4c(-c5cccnc5N)nc5ccccc54)cc3)CC2)n1 [Example 532, 4-((1-(4-(2-(2-Aminopyridin-3-yl)-1H-benzo[d]imidazol-1-yl)benzyl)piperidin-4-yl)amino)pyrimidine-2-carbonitrile] | 60 to 600 nM |
| N#Cc1nccc(NC2CCN(Cc3ccc(-n4c(-c5cccnc5N)nc5ncccc54)cc3)CC2)n1 [Example 533, 4-((1-(4-(2-(2-Aminopyridin-3-yl)-1H-imidazo[4,5-b]pyridin-1-yl)benzyl)piperidin-4-yl)amino)pyrimidine-2-carbonitrile] | 60 to 600 nM |
| Cc1ccc(-c2ccc3nc(-c4cccnc4N)n(-c4ccc(CN5CCC(Nc6ccnc(C#N)n6)CC5)cc4)c3n2)cn1 [Example 534, 4-((1-(4-(2-(2-Aminopyridin-3-yl)-5-(6-methylpyridin-3-yl)-3H-imidazo[4,5-b]pyridin-3-yl)benzyl)piperidin-4-yl)amino)pyrimidine-2-carbonitrile] | < 15 nM |
| N#Cc1nccc(NC2CCN(Cc3ccc(-n4c(-c5cccnc5N)nc5ccc(OC(F)F)nc54)cc3)CC2)n1 [Example 535, 4-((1-(4-(2-(2-Aminopyridin-3-yl)-5-(difluoromethoxy)-3H-imidazo[4,5-b]pyridin-3-yl)benzyl)piperidin-4-yl)amino)pyrimidine-2-carbonitrile] | < 15 nM |
| COc1ccncc1-c1ccc2nc(-c3cccnc3N)n(-c3ccc(CN4CCC(Nc5ccnc(C#N)n5)CC4)cc3)c2n1 [Example 536, 4-((1-(4-(2-(2-Aminopyridin-3-yl)-5-(4-methoxypyridin-3-yl)-3H-imidazo[4,5-b]pyridin-3-yl)benzyl)piperidin-4-yl)amino)pyrimidine-2-carbonitrile] | < 15 nM |
| COc1ncccc1-c1ccc2nc(-c3cccnc3N)n(-c3ccc(CN4CCC(Nc5ccnc(C#N)n5)CC4)cc3)c2n1 [Example 537, 4-((1-(4-(2-(2-Aminopyridin-3-yl)-5-(2-methoxypyridin-3-yl)-3H-imidazo[4,5-b]pyridin-3-yl)benzyl)piperidin-4-yl)amino)pyrimidine-2-carbonitrile] | < 15 nM |

Other lines, results leading:

| IC50 | Structure (SMILES) |
| --- | --- |
| 15 to 60 nM | N#Cc1nccc(NC2CCN(Cc3ccc(-n4c(-c5cccnc5N)nc5ccc(-c6ccc[nH]c6=O)nc54)cc3)CC2)n1 [Example 538, 4-((1-(4-(2-(2-Aminopyridin-3-yl)-5-(2-hydroxypyridin-3-yl)-3H-imidazo[4,5-b]pyridin-3-yl)benzyl)piperidin-4-yl)amino)pyrimidine-2-carbonitrile] |
| < 15 nM | Cc1nn(C)cc1-c1ccc2nc(-c3cccnc3N)n(-c3ccc(CN4CCC(Nc5ccnc(C#N)n5)CC4)cc3)c2n1 [Example 539, 4-((1-(4-(2-(2-Aminopyridin-3-yl)-5-(1,3-dimethyl-1H-pyrazol-4-yl)-3H-imidazo[4,5-b]pyridin-3-yl)benzyl)piperidin-4-yl)amino)pyrimidine-2-carbonitrile] |
| 60 to 600 nM | N#Cc1nccc(NC2CCN(Cc3ccc(-n4c(-c5cccnc5N)nc5cnccc54)cc3)CC2)n1 [Example 540, 4-((1-(4-(2-(2-Aminopyridin-3-yl)-1H-imidazo[4,5-c]pyridin-1-yl)benzyl)piperidin-4-yl)amino)pyrimidine-2-carbonitrile] |
| < 15 nM | CN(c1ccnc(C#N)n1)C1CCN(Cc2ccc(-n3c(-c4cccnc4N)nc4ccc(-c5ccc(F)cc5)nc43)cc2)CC1 [Example 541, 4-((1-(4-(2-(2-aminopyridin-3-yl)-5-(4-fluorophenyl)-3H-imidazo[4,5-b]pyridin-3-yl)benzyl)piperidin-4-yl)(methyl)amino)pyrimidine-2-carbonitrile] |
| < 15 nM | N#Cc1nccc(NC2CCN(Cc3ccc(-n4c(-c5cccnc5N)nc5ccc(-c6ccc(OC(F)F)nc6)nc54)cc3)CC2)n1 [Example 542, 4-((1-(4-(2-(2-Aminopyridin-3-yl)-5-(6-(difluoromethoxy)pyridin-3-yl)-3H-imidazo[4,5-b]pyridin-3-yl)benzyl)piperidin-4-yl)amino)pyrimidine-2-carbonitrile] |
| 15 to 60 nM | N#Cc1nccc(NC2CCN(Cc3ccc(-n4c(-c5cccnc5N)nc5ccc(-c6ccnc(OC(F)F)c6)nc54)cc3)CC2)n1 [Example 543, 4-((1-(4-(2-(2-aminopyridin-3-yl)-5-(2-(difluoromethoxy)pyridin-4-yl)-3H-imidazo[4,5-b]pyridin-3-yl)benzyl)piperidin-4-yl)amino)pyrimidine-2-carbonitrile] |
| < 15 nM | N#Cc1nccc(NC2CCN(Cc3ccc(-n4c(-c5cccnc5N)nc5ccc(-c6ccc(F)cc6O)nc54)cc3)CC2)n1 [Example 544, 4-((1-(4-(2-(2-Aminopyridin-3-yl)-5-(4-fluoro-2-hydroxyphenyl)-3H-imidazo[4,5-b]pyridin-3-yl)benzyl)piperidin-4-yl)amino)pyrimidine-2-carbonitrile] |
| < 15 nM | N#Cc1nccc(NC2CCN(Cc3ccc(-n4c(-c5cccnc5N)nc5ccc(-c6ccc(F)c(O)c6)nc54)cc3)CC2)n1 [Example 545, 4-((1-(4-(2-(2-Aminopyridin-3-yl)-5-(4-fluoro-3-hydroxyphenyl)-3H-imidazo[4,5-b]pyridin-3-yl)benzyl)piperidin-4-yl)amino)pyrimidine-2-carbonitrile] |
| < 15 nM | Cn1cncc1-c1ccc2nc(-c3cccnc3N)n(-c3ccc(CN4CCC(Nc5ccnc(C#N)n5)CC4)cc3)c2n1 [Example 546, 4-((1-(4-(2-(2-Aminopyridin-3-yl)-5-(1-methyl-1H-imidazol-5-yl)-3H-imidazo[4,5-b]pyridin-3-yl)benzyl)piperidin-4-yl)amino)pyrimidine-2-carbonitrile] |
| < 15 nM | Cc1ccc(-c2ccc3nc(-c4cccnc4N)n(-c4ccc(CN5CCC(Nc6ccnc(C#N)n6)CC5)cc4)c3n2)nc1 [Example 547, 4-((1-(4-(2-(2-Aminopyridin-3-yl)-5-(5-methylpyridin-2-yl)-3H-imidazo[4,5-b]pyridin-3-yl)benzyl)piperidin-4-yl)amino)pyrimidine-2-carbonitrile] |
| < 15 nM | N#Cc1ccnc(-c2ccc3nc(-c4cccnc4N)n(-c4ccc(CN5CCC(Nc6ccnc(C#N)n6)CC5)cc4)c3n2)c1 [Example 548, 4-((1-(4-(2-(2-Aminopyridin-3-yl)-5-(4-cyanopyridin-2-yl)-3H-imidazo[4,5-b]pyridin-3-yl)benzyl)piperidin-4-yl)amino)pyrimidine-2-carbonitrile] |
| < 15 nM | N#Cc1nccc(NC2CCN(Cc3ccc(-n4c(-c5cccnc5N)nc5cc(Br)c(-c6ccc(F)cc6)nc54)cc3)CC2)n1 [Example 549, 4-((1-(4-(2-(2-Aminopyridin-3-yl)-6-bromo-5-(4-fluorophenyl)-3H-imidazo[4,5-b]pyridin-3-yl)benzyl)piperidin-4-yl)amino)pyrimidine-2-carbonitrile] |
